{
  "source": "patent US4256729A",
  "about": "“N,N'-Bis-(2,3-dihydroxypr opyl)-2,4,6-triiodo-5-(2-keto-L-gulonamido)isophthalamide and radiological compositions containing same” (Mallinckrodt, Inc., priority 1979, dated 1981)",
  "key": {"Solubility in water": {"test": "Solubility in water", "format": "physicochemical", "protocol": "(§1) The product was dissolved in water (sterile water for injection, 1 liter). The solution was evaporated to about 800 ml under reduced pressure at 55° and treated with active charcoal (Darco G-60, 7.0 g) at room temperature overnight. The solution was filtered (first through a Whatman #4 filter paper and then through a Millipore 0.22 μ filter paper), and the clear filtrate was evaporated under reduced pressure at 50°-60° to give a white glassy solid. The product, which was dried under vacuum at 50°-60° for 5 hours, weighed 53.0 g (60% yield). The compound softens at 190°-195° and decomposes above 220°. […] Nmr and ir data are consistent with the assigned structure IX. Elemental analysis: Calcd. for C20 H26 I3 N3 O12 : C, 27.26; H, 2.97; I, 43.21; N, 4.77; Found: C, 26.92; H, 3.15; I, 42.92; N, 4.40.\n2. Solubility: ≥100% w/v."}, "[1]": {"test": "Stability in aqueous solution by tlc and lc analysis", "format": "physicochemical", "conditions": "Method I product", "protocol": "as §1"}, "[2]": {"tested_on": "cardiovascular and renal excretory systems", "test": "Radiographic observations in mouse (whole body radiographs after i.v. injection)", "format": "in vivo", "conditions": "male mouse, pentobarbital anesthetized; 10,000 mg I/kg i.v. (28% I solution), 1/2 ml/minute; immediately after administration; Method I product", "protocol": "A male mouse (20 g) was anesthetized with sodium pentobarbital (60 mg/kg, i.p.; Diabutal®, Diamond Laboratories)."}, "[3]": {"tested_on": "cisterna magna, basal cisterns, and cervical subarachnoid space", "test": "Radiographic observations in rat (lateral radiographs of head and thorax after intracisternal injection)", "format": "in vivo", "conditions": "male rat, pentobarbital anesthetized; 140 mg I/kg intracisternally (28% I solution); immediately and 3 minutes after administration; Method I product", "experimental": "A pentobarbital anesthetized male rat received 140 mg I/kg of the N,N'-bis-(2,3-dihydroxypropyl)-2,4,6-triiodo-5-(2-keto-L-gulonamido)isophthalamide prepared by Method I, (28% I solution) intracisternally."}, "in vivo [4]": {"test": "in vivo", "conditions": "mouse, in vivo, iv", "protocol": "(§2) The following pharmacological studies were conducted on N,N'-bis-(2,3-dihydroxypropyl)-2,4,6-triiodo-5-(2-keto-L-gulonamido)isophthalamide prepared by Method II (PRODUCT).\n(§3) A solution of the PRODUCT was injected into the lateral tail vein of young adult male and female Swiss mice at a rate of 1 ml/min."}, "Swiss mice [5]": {"tested_on": "Swiss mice", "test": "Acute Intraveneous Toxicity in Mice", "conditions": "i.v., 1 ml/min, 400 mg I/ml; seven day observation; 95% limits 18,161-20,510", "protocol": "as §2, §3"}, "in vivo [6]": {"test": "in vivo", "conditions": "mouse, in vivo, icv or intrathecal", "protocol": "as §2\n(§4) Employing a slightly modified version of the techique developed by Haley and McCormick (Brit. J. Pharmacol. 12: 12-15, 1957), young adult male and female Swiss mice received injections of a solution of the PRODUCT directly into lateral ventricles and brain tissue."}, "Swiss mice [7]": {"tested_on": "Swiss mice", "test": "Acute Intracerebral Toxicity in Mice", "conditions": "intracerebral, 250-400 mg I/ml; seven day observation; 95% limits 1,203-1,772", "protocol": "as §2, §4"}, "in vivo [8]": {"test": "in vivo", "conditions": "rat, in vivo", "protocol": "as §2\n(§5) The technique described by Melartin et al. (Invest. Radiol. 5: 13-21, 1970) was utilized to evaluate lethal effects of a solution of the PRODUCT after injection into cerebrospinal fluid at the cisterna magna. Young adult male and female Sprague Dawley rats were used. After dosing, the animals were housed individually and observed for immediate reactions and periodically for a two day observation period."}, "Sprague Dawley rats": {"tested_on": "Sprague Dawley rats", "test": "Acute Intracisternal Toxicity in Rats", "conditions": "intracisternal, 444 mg I/ml; two day observation; 95% limits 582-951", "protocol": "as §2, §5"}, "dogs": {"tested_on": "dogs", "test": "Acute intracisternal Neurotoxicity in Dogs", "format": "in vivo", "conditions": "dosage range 200-244 mg I/kg, constant 0.5 ml/kg volume dose", "protocol": "Adult dogs of either sex were employed for this procedure and were briefly anesthetized with thiopentol sodium during the injection of a solution of the compound. The PRODUCT was administered into cerebrospinal fluid at the cisterna magna at varying concentrations but at a constant 0.5 ml/kg volume dose. Animals were thereafter observed for neurotoxicity with the following results."}},
  "note": "Like-named read-outs stand apart in the source and are kept apart here.",
  "data": [
    {"smiles": "O=C(Nc1c(I)c(C(=O)NCC(O)CO)c(I)c(C(=O)NCC(O)CO)c1I)C(=O)[C@@H](O)[C@H](O)[C@@H](O)CO", "note": "(stereo partly drawn) [IX, N,N'-Bis-(2,3-dihydroxypropyl)-2,4,6-triiodo-5-(2-keto-L-gulonamido)isophthalamide]", "values": [
      {"measurement": "solubility", "setting": "Solubility in water; Method II product", "value": "≥ 100", "unit": "% w/v"},
      {"measurement": "solubility", "setting": "Solubility in water; water, Method I product, read-out: solubility in water", "value": "≥ 1000", "unit": "mg/mL"},
      {"measurement": "stability in aqueous solution", "setting": "[1]", "value": "stable in aqueous solution"},
      {"measurement": "opacification on whole body radiographs", "setting": "[2]", "value": "opacification of the cardiovascular and renal excretory systems"},
      {"measurement": "visualization on lateral radiographs of head and thorax", "setting": "[3]", "value": "good visualization of the cisterna magna, basal cisterns, and cervical subarachnoid space"},
      {"measurement": "LD50 at 168 h", "setting": "in vivo [4]", "value": 44700, "unit": "mg/kg"},
      {"measurement": "LD50 /(95% Confidence Limits)", "setting": "Swiss mice [5]", "value": "19,300 mg I/kg"},
      {"measurement": "LD50 at 168 h", "setting": "in vivo [6]", "value": 3380, "unit": "mg/kg"},
      {"measurement": "LD50 /(95% Confidence Limits)", "setting": "Swiss mice [7]", "value": "1,460 mg I/kg"},
      {"measurement": "LD50 at 48 h", "setting": "in vivo [8]", "value": 1720, "unit": "mg/kg"},
      {"measurement": "LD50 /(95% Confidence Limits)", "setting": "Sprague Dawley rats", "value": 744, "unit": "mg I/kg"},
      {"measurement": "Minimum Convulsion Dose", "setting": "dogs", "value": "> 244", "unit": "mg I/kg"}
    ]}
  ]
}
